Target: T1, GPR120 (Homo sapiens, UniProt Q5NUL3)
T1 construct: expressed in transfected cells; host or cells: CHO mitoPhotinaGPR120 cells
T1 sequence (Q5NUL3 1-361): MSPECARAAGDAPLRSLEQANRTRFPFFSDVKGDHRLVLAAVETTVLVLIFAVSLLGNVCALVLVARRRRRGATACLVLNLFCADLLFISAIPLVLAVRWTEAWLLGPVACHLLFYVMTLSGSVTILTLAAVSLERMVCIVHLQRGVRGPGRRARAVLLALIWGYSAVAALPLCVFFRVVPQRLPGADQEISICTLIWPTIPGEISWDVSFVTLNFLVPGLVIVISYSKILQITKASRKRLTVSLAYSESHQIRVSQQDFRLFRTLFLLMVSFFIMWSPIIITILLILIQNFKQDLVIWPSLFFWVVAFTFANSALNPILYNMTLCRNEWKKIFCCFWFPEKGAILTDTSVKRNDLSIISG
Test: GPR120 agonism in CHO mitoPhotinaGPR120 cell based assay with fluorescent (Fluo-8 calcium, FLIPRTetra) readout, Agonist Mode, dose response
Settings: CHO mitoPhotinaGPR120 cells, Fluo-8 No Wash Ca2+ dye, dose response in quadruplicate, 0.0033% fatty acid free BSA
Protocol: Compounds of the invention were tested for GPR120 agonism in a CHO mitoPhotinaGPR120 cell based assay with fluorescent readout in Agonist Mode in dose response in quadruplicate with intra-plate modality.
Twenty (20) h after seeding, growth medium was manually removed and cells were starved in the presence of 25 μL/w of Standard Tyrode's Buffer. After 3 h, cells were loaded with 20 μL/w of 0.5× Fluo-8 No Wash (AAT Bioquest, Inc.) Ca2+ sensitive dye prepared in Standard Tyrode's Buffer. Cells were incubated for 1 h at room temperature in the dark. Ten (10) μL/w 3× of controls and compounds were diluted in Standard Tyrode's Buffer+0.01% fatty acid free BSA (final concentration=0.0033%) and injected at the FLIPRTetra®, recording the kinetic calcium traces for 3 minutes. Standard Tyrode's buffer composition: 5 mM KCl, 130 mM NaCl, 2 mM CaCl2), 5 mM NaHCO3, 1 mM MgCl2, 20 mM HEPES, pH7.4.

EC50	SMILES
0.45 µM	Cc1nn(-c2ccccc2)c(COc2c(F)cc(CC(C)CO)cc2F)c1C#N (racemic) [Example 43, 5-[[2,6-difluoro-4-(3-hydroxy-2-methyl-propyl)phenoxy]methyl]-3-methyl-1-phenyl-pyrazole-4-carbonitrile]
1.65 µM	Cc1nn(-c2ccccc2)c(COc2ccc(CCC(C)O)cc2)c1C#N (racemic) [Example 47, 5-[[4-(3-hydroxybutyl)phenoxy]methyl]-3-methyl-1-phenyl-pyrazole-4-carbonitrile]
0.34 µM	Cc1nn(-c2ccccc2)c(COc2c(F)cc(CC(C)CO)cc2F)c1C#N (single isomer, unassigned; (+)) [Example 43A, (+)-5-[[2,6-difluoro-4-(3-hydroxy-2-methyl-propyl)phenoxy]methyl]-3-methyl-1-phenyl-pyrazole-4-carbonitrile]
1.69 µM	Cc1nn(-c2ccccc2)c(COc2c(F)cc(CC(C)CO)cc2F)c1C#N (single isomer, unassigned; (+)) [Example 43B, (+)-5-[[2,6-difluoro-4-(3-hydroxy-2-methyl-propyl)phenoxy]methyl]-3-methyl-1-phenyl-pyrazole-4-carbonitrile]
0.5 µM	Cc1nn(-c2ccccc2)c(COc2ccc(CCC(C)O)cc2)c1C#N (single isomer, unassigned; (+)) [Example 47A, (+)-5-[[4-(3-hydroxybutyl)phenoxy]methyl]-3-methyl-1-phenyl-pyrazole-4-carbonitrile]
2.36 µM	Cc1nn(-c2ccccc2)c(COc2ccc(CCC(C)O)cc2)c1C#N (single isomer, unassigned; (-)) [Example 47B, (−)-5-[[4-(3-hydroxybutyl)phenoxy]methyl]-3-methyl-1-phenyl-pyrazole-4-carbonitrile]
1.29 µM	Cc1nn(-c2ccccc2)c(COc2ccc(C#N)cc2)c1C#N [Example 1, 5-[(4-cyanophenoxy)methyl]-3-methyl-1-phenyl-pyrazole-4-carbonitrile]
1.24 µM	Cc1nn(-c2ccccc2)c(COc2ccc(CO)cc2Cl)c1C#N [Example 2, 5-[[2-chloro-4-(hydroxymethyl)phenoxy]methyl]-3-methyl-1-phenyl-pyrazole-4-carbonitrile]
1.31 µM	COc1ccc(OCc2c(C#N)c(C)nn2-c2ccccc2)cc1 [Example 3, 5-[(4-methoxyphenoxy)methyl]-3-methyl-1-phenyl-pyrazole-4-carbonitrile]
1.67 µM	Cc1ccc(OCc2c(C#N)c(C)nn2-c2ccccc2)cc1 [Example 4, 3-methyl-5-[(4-methylphenoxy)methyl]-1-phenyl-pyrazole-4-carbonitrile]
2.31 µM	Cc1nn(-c2ccccc2)c(COc2ccc(CO)cc2)c1C#N [Example 5, 5-[[4-(hydroxymethyl)phenoxy]methyl]-3-methyl-1-phenyl-pyrazole-4-carbonitrile]
1.1 µM	Cc1nn(-c2ccccc2)c(COc2ccc(CCO)cc2)c1C#N [Example 6, 5-[[4-(2-hydroxyethyl)phenoxy]methyl]-3-methyl-1-phenyl-pyrazole-4-carbonitrile]
1.52 µM	Cc1nn(-c2ccccc2)c(COc2ccccc2)c1C#N [Example 8, 3-methyl-5-(phenoxymethyl)-1-phenyl-pyrazole-4-carbonitrile]
3.39 µM	Cc1nn(-c2ccccc2)c(COc2ccc(C#N)cc2F)c1C#N [Example 10, 5-[(4-cyano-2-fluoro-phenoxy)methyl]-3-methyl-1-phenyl-pyrazole-4-carbonitrile]
3.09 µM	Cc1nn(-c2ccccc2)c(COc2ccc(CO)c(F)c2F)c1C#N [Example 14, 5-[[2,3-difluoro-4-(hydroxymethyl)phenoxy]methyl]-3-methyl-1-phenyl-pyrazole-4-carbonitrile]
0.86 µM	Cc1cc(CO)ccc1OCc1c(C#N)c(C)nn1-c1ccccc1 [Example 16, 5-[[4-(hydroxymethyl)-2-methyl-phenoxy]methyl]-3-methyl-1-phenyl-pyrazole-4-carbonitrile]
1.01 µM	Cc1cc(CO)cc(C)c1OCc1c(C#N)c(C)nn1-c1ccccc1 [Example 17, 5-[[4-(hydroxymethyl)-2,6-dimethyl-phenoxy]methyl]-3-methyl-1-phenyl-pyrazole-4-carbonitrile]
1.41 µM	Cc1nn(-c2ccccc2)c(COc2ccc(F)cc2)c1C#N [Example 18, 5-[(4-fluorophenoxy)methyl]-3-methyl-1-phenyl-pyrazole-4-carbonitrile]
1.77 µM	Cc1nn(-c2ccccc2)c(COc2ccc(CO)cc2F)c1C#N [Example 20, 5-[[2-fluoro-4-(hydroxymethyl)phenoxy]methyl]-3-methyl-1-phenyl-pyrazole-4-carbonitrile]

EC50	SMILES
1.33 µM	Cc1nn(-c2ccccc2)c(COc2c(F)cc(CO)cc2F)c1C#N [Example 21, 5-[[2,6-difluoro-4-(hydroxymethyl)phenoxy]methyl]-3-methyl-1-phenyl-pyrazole-4-carbonitrile]
8.13 µM	Cc1nn(-c2ccccc2)c(COc2ccccc2CO)c1C#N [Example 23, 5-[[2-(hydroxymethyl)phenoxy]methyl]-3-methyl-1-phenyl-pyrazole-4-carbonitrile]
7.31 µM	Cc1nn(-c2ccccc2)c(COc2cccc(CO)c2)c1C#N [Example 24, 5-[[3-(hydroxymethyl)phenoxy]methyl]-3-methyl-1-phenyl-pyrazole-4-carbonitrile]
0.94 µM	Cc1cccc(C)c1OCc1c(C#N)c(C)nn1-c1ccccc1 [Example 25, 5-[(2,6-dimethylphenoxy)methyl]-3-methyl-1-phenyl-pyrazole-4-carbonitrile]
0.58 µM	Cc1ccccc1OCc1c(C#N)c(C)nn1-c1ccccc1 [Example 26, 3-methyl-5-[(2-methylphenoxy)methyl]-1-phenyl-pyrazole-4-carbonitrile]
4.22 µM	Cc1nn(-c2ccccc2)c(COc2ccc(CC#N)cc2)c1C#N [Example 29, 5-[[4-(cyanomethyl)phenoxy]methyl]-3-methyl-1-phenyl-pyrazole-4-carbonitrile]
0.71 µM	Cc1cccc(OCc2c(C#N)c(C)nn2-c2ccccc2)c1C [Example 30, 5-[(2,3-dimethylphenoxy)methyl]-3-methyl-1-phenyl-pyrazole-4-carbonitrile]
0.09 µM	Cc1nn(-c2ccccc2)c(COc2c(F)cc(CCCO)cc2F)c1C#N [Example 32, 5-[[2,6-difluoro-4-(3-hydroxypropyl)phenoxy]methyl]-3-methyl-1-phenyl-pyrazole-4-carbonitrile]
1.27 µM	Cc1nn(-c2ccccc2)c(COc2ccc(CCO)cc2F)c1C#N [Example 33, 5-[[2-fluoro-4-(2-hydroxyethyl)phenoxy]methyl]-3-methyl-1-phenyl-pyrazole-4-carbonitrile]
0.15 µM	Cc1nn(-c2ccccc2)c(COc2ccc(CCCO)cc2)c1C#N [Example 35, 5-[[4-(3-hydroxypropyl)phenoxy]methyl]-3-methyl-1-phenyl-pyrazole-4-carbonitrile]
7.24 µM	CCc1ccccc1OCc1c(C#N)c(C)nn1-c1ccccc1 [Example 39, 5-[(2-ethylphenoxy)methyl]-3-methyl-1-phenyl-pyrazole-4-carbonitrile]
0.79 µM	Cc1nn(-c2ccccc2)c(COc2cccc(F)c2)c1C#N [Example 40, 5-[(3-fluorophenoxy)methyl]-3-methyl-1-phenyl-pyrazole-4-carbonitrile]
0.49 µM	Cc1nn(-c2ccccc2)c(COc2ccc(CCCO)cc2F)c1C#N [Example 42, 5-[[2-fluoro-4-(3-hydroxypropyl)phenoxy]methyl]-3-methyl-1-phenyl-pyrazole-4-carbonitrile]
18.4 µM	Cc1nn(-c2ccccc2)c(COc2ccc(CC(=O)NCCO)cc2)c1C#N [Example 49, 2-[4-[(4-cyano-5-methyl-2-phenyl-pyrazol-3-yl)methoxy]phenyl]-~{N}-(2-hydroxyethyl)acetamide]
0.52 µM	COc1cc(CCCO)ccc1OCc1c(C#N)c(C)nn1-c1ccccc1 [Example 53, 5-[[4-(3-hydroxypropyl)-2-methoxy-phenoxy]methyl]-3-methyl-1-phenyl-pyrazole-4-carbonitrile]
18.4 µM	Cc1nn(-c2ccccc2)c(COc2ccc(C(C)O)cc2)c1C#N (stereo not shown) [Example 54, 5-[[4-(1-hydroxyethyl)phenoxy]methyl]-3-methyl-1-phenyl-pyrazole-4-carbonitrile]
2.03 µM	COCc1ccc(OCc2c(C#N)c(C)nn2-c2ccccc2)cc1 [Example 55, 5-[[4-(methoxymethyl)phenoxy]methyl]-3-methyl-1-phenyl-pyrazole-4-carbonitrile]
5 µM	COCCc1ccc(OCc2c(C#N)c(C)nn2-c2ccccc2)cc1 [Example 56, 5-[[4-(2-methoxyethyl)phenoxy]methyl]-3-methyl-1-phenyl-pyrazole-4-carbonitrile]
